Test results taken from patent US20250290117A1, “MOLECULAR PHENOTYPIC ANTIMICROBIAL SUSCEPTIBILITY TESTING” (priority 2024, published 2025).

Legend:
[1] = tested on: pathogens of clinical samples; assay: Molecular phenotypic antimicrobial susceptibility test of clinical samples, extraction DNA purification step prior to PCR (Table 6); format: cell-based
In short: (§1)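 Breakpoint-concentration antimicrobials in Mueller Hinton Broth; inoculum 0.5 McFarland; 12-16 h incubation. Read-out: semi-quantitative PCR, after magnetic-bead DNA purification or direct PCR following lysis buffer in the thermal cycler.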

S. aureus = assay: Molecular phenotypic antimicrobial susceptibility test with direct PCR (no extraction DNA purification step); format: cell-based, Staphylococcus aureus
In short: as §1

E. coli = assay: Molecular phenotypic antimicrobial susceptibility test, specimen with two detected pathogens incubated together without isolation; format: cell-based, Escherichia coli; details: E. coli in specimen with two detected pathogens (E. coli and M. morganii) incubated together
In short: (§2)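 Susceptibility read molecularly: growth means resistance, prevented growth sensitivity, versus antibiotic-free control wells. Co-detected pathogens stay together without isolation; after 4-6 h preincubation and PCR identification (threshold >10,000 cells/mL), inoculum adjusted to 0.5 McFarland and placed on thawed plates with each drug at its breakpoint concentration(s).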

M. morganii = assay: as above; format: cell-based, Morganella morganii; details: M. morganii in specimen with two detected pathogens (E. coli and M. morganii) incubated together
In short: as §2

Q: Which “Molecular Antibiotic Susceptibility Result” value ([1]; E. coli, clinical sample of r10-r24) does the source give for Trimethoprim/Sulfamethoxazole [TMP/SMX] here?
A: Sensitive (Antimicrobial wells with pathogen load detected below the control wells (typically >2 cycle thresholds later) may be reported as Sensitive)

Q: What about the Ct ([1]; E. coli, clinical sample of r10-r24, Ct Control Avg 18.112) of the same substance?
A: 28.072

Q: What about the “Molecular Antibiotic Susceptibility Result” value ([1]; E. coli, clinical sample of r158-r172) of the same substance?
A: Sensitive (Antimicrobial wells with pathogen load detected below the control wells (typically >2 cycle thresholds later) may be reported as Sensitive)

Q: And the Ct ([1]; E. coli, clinical sample of r158-r172, Ct Control Avg 20.146)?
A: 33.402

Q: And the “Molecular Antibiotic Susceptibility Result” value ([1]; K. aerogenes, clinical sample of r136-r150)?
A: Sensitive (Antimicrobial wells with pathogen load detected below the control wells (typically >2 cycle thresholds later) may be reported as Sensitive)

Q: And the Ct ([1]; K. aerogenes, clinical sample of r136-r150, Ct Control Avg 19.994)?
A: 36.5

Q: What about the “Molecular Antibiotic Susceptibility Result” value ([1]; K. pneumoniae, clinical sample of r121-r135) of the same substance?
A: Sensitive (Antimicrobial wells with pathogen load detected below the control wells (typically >2 cycle thresholds later) may be reported as Sensitive)

Q: What about the Ct ([1]; K. pneumoniae, clinical sample of r121-r135, Ct Control Avg 24.272) of the same substance?
A: 34.918

Q: What about the “Molecular Antibiotic Susceptibility Result” value ([1]; M. morganii, clinical sample of r55-r69) of the same substance?
A: Sensitive (Antimicrobial wells with pathogen load detected below the control wells (typically >2 cycle thresholds later) may be reported as Sensitive)

Q: And the Ct ([1]; M. morganii, clinical sample of r55-r69, Ct Control Avg 28.86)?
A: Undet

Q: And the “Molecular Antibiotic Susceptibility Result” value ([1]; M. morganii, clinical sample of r70-r84)?
A: Sensitive (Antimicrobial wells with pathogen load detected below the control wells (typically >2 cycle thresholds later) may be reported as Sensitive)

Q: What about the Ct ([1]; M. morganii, clinical sample of r70-r84, Ct Control Avg 27.053) of the same substance?
A: 30.225

Q: What about the “Molecular Antibiotic Susceptibility Result” value ([1]; P. mirabilis, clinical sample of r25-r39) of the same substance?
A: Sensitive (Antimicrobial wells with pathogen load detected below the control wells (typically >2 cycle thresholds later) may be reported as Sensitive)

Q: And the Ct ([1]; P. mirabilis, clinical sample of r25-r39, Ct Control Avg 26.064)?
A: 30.865

Q: And the “Molecular Antibiotic Susceptibility Result” value ([1]; P. mirabilis, clinical sample of r40-r54)?
A: Sensitive (Antimicrobial wells with pathogen load detected below the control wells (typically >2 cycle thresholds later) may be reported as Sensitive)

Q: What about the Ct ([1]; P. mirabilis, clinical sample of r40-r54, Ct Control Avg 26.987) of the same substance?
A: 33.833

Q: What about the “Molecular Antibiotic Susceptibility Result” value ([1]; S. aureus, clinical sample of r85-r92) of the same substance?
A: Sensitive (Antimicrobial wells with pathogen load detected below the control wells (typically >2 cycle thresholds later) may be reported as Sensitive)

Q: What about the Ct ([1]; S. aureus, clinical sample of r85-r92, Ct Control Avg 24.32) of the same substance?
A: 27.399

Q: And the “Ct at Sensitive Breakpoint” value (S. aureus; S. aureus isolate NR-46412 HIP13170, Ct at control (average) 18.824)?
A: 28.63

Q: What about the “Molecular Antimicrobial Susceptibility Result” value (S. aureus; S. aureus isolate NR-46412 HIP13170, at sensitive breakpoint) of the same substance?
A: Sensitive (Antimicrobial wells with pathogen load detected below the control wells (typically >2 cycle thresholds later) may be reported as Sensitive)

Q: What about the “Ct of Sensitive Breakpoint” value (E. coli; Ct of controls (average) 15.93) of the same substance?
A: 27.67

Q: And the “Molecular Antimicrobial Susceptibility Result” value (E. coli; at sensitive breakpoint)?
A: Sensitive (Antimicrobial wells with pathogen load detected below the control wells (typically >2 cycle thresholds later) may be reported as Sensitive)

Q: What about the “Ct of Sensitive Breakpoint” value (M. morganii; Ct of controls (average) 19.99) of the same substance?
A: 32.93

Q: And the “Molecular Antimicrobial Susceptibility Result” value (M. morganii; at sensitive breakpoint)?
A: Sensitive (Antimicrobial wells with pathogen load detected below the control wells (typically >2 cycle thresholds later) may be reported as Sensitive)
